From publication PMC6753081 (Nature Communications, 2019) come the findings set out here.

The target of assay [1] is T1, FKBP12 (C. albicans) (Candida albicans, UniProt P28870).
T1 construct: gene RBP1; E. coli BL21(DE3), N-terminal 6xHis cut by thrombin, 15N/13C labelled, free FKBP12
T1 sequence (P28870 1-124): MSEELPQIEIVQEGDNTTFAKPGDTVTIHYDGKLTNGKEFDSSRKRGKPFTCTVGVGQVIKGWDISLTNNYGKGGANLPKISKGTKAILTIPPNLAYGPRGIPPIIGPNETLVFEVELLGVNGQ
Format: binding. Conditions: pH […] °C, […] phosphate, […] NaCl.

In assay [2] the target is T2, A. fumigatus CN/FKBP12 complex (CnA/CnB/AfFKBP12) (Aspergillus fumigatus, UniProt Q4WDF2+Q4WLV6+Q4WUR1).
T2 construct: gene cnaA
Conditions: ternary complex CnA/CnB-FK506-FKBP12; at the FKBP12-BBH/CnB interface, not the phosphatase active site.

The target in assay [3] is T3, C. neoformans calcineurin catalytic subunit (CnA), residues 34-402 (C. neoformans, UniProt O42773 34-402).
T3 construct: also called calcineurin A
The assay is described as follows: crystal structure. Conditions: both partners purified.

T2 sequence (Q4WDF2 entry or part of it): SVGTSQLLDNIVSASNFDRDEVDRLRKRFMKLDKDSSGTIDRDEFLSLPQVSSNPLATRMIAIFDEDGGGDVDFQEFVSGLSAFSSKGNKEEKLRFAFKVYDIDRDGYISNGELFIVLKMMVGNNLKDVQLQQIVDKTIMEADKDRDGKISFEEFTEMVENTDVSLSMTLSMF
T2 sequence (Q4WUR1 2-370): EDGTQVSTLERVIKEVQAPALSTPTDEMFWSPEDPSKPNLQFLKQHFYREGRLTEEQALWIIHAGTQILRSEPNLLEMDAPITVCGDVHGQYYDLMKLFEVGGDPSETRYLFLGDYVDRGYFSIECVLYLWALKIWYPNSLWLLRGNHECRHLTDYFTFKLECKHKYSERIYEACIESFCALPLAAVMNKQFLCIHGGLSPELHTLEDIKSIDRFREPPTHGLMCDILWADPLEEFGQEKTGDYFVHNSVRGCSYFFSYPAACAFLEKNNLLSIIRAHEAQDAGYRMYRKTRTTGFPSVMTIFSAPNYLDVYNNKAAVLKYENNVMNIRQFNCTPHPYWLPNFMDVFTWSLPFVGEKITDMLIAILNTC
T2 sequence (Q4WLV6 2-112): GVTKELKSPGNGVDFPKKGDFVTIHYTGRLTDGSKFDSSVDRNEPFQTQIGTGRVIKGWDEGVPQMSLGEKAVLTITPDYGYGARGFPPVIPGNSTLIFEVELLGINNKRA
T3 sequence (O42773 34-402): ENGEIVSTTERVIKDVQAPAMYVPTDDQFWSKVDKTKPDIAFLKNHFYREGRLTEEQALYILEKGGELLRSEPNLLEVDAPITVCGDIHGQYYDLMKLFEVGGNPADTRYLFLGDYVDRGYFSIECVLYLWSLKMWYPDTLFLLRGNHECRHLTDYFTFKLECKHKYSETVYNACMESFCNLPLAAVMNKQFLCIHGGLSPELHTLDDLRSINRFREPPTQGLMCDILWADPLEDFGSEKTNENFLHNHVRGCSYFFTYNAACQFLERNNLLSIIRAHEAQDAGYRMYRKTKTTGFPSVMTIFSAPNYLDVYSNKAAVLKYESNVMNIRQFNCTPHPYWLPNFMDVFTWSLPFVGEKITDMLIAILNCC

As for `C=CC[C@@H]1/C=C(\C)C[C@H](C)C[C@H](OC)[C@H]2O[C@@](O)(C(=O)C(=O)N3CCCC[C@H]3C(=O)O[C@H](/C(C)=C/[C@@H]3CC[C@@H](O)[C@H](OC)C3)[C@H](C)[C@@H](O)CC1=O)[C@H](C)C[C@@H]2OC` [FK506], the “NMR resonance assignment of apo and FK506-bound state” value in assay [1] is “A. fumigatus and C. albicans were determined in both the apo and FK506 bound states”. Besides, the “X-ray crystal structure, 2.50 Å” value in assay [2] is on record as “A single copy of the complex was placed per asymmetric unit (PDB ID: 6TZ7)”.

B1: C. neoformans calcineurin regulatory subunit (CnB), residues 1-175 (natural protein)
chain: MGAAESSMFNSLEKNSNFSGPELMRLKKRFMKLDKDGSGSIDKDEFLQIPQIANNPLAHRMIAIFDEDGSGTVDFQEFVGGLSAFSSKGGRDEKLRFAFKVYDMDRDGYISNGELYLVLKQMVGNNLKDQQLQQIVDKTIMEADKDGDGKLSFEEFTQMVASTDIVKQMTLEDLF
notes: also called calcineurin B
B1: the binding result in assay [3] is “binds”.
